Results as given in patent US7786258B2, “Methods for inhibiting immune complex formation in a subject” (Trinity Therapeutics, Inc., priority 2004, dated 2010).
Where two headings read alike, the source gives them in different places. Positions of bridges follow the written chain, without caps; N, C: chain ends. Residues, ends and D or L forms follow the SMILES beside them. No end group written: not given here.

Assays:
[1] = tested on: DBA/1J mice with collagen-induced arthritis
[2] = tested on: whole human IgG4; test: Inhibition of Fc:Fc interactions: immune complexes on IgG4 coated microwells (Example 3); format: binding; conditions: for OD 405 nm: IgG4 coated microwells, positive control (buffer) 0.716
Chain of whole human IgG4 (P01861 99-327 isoform P01861-1 limits assumed): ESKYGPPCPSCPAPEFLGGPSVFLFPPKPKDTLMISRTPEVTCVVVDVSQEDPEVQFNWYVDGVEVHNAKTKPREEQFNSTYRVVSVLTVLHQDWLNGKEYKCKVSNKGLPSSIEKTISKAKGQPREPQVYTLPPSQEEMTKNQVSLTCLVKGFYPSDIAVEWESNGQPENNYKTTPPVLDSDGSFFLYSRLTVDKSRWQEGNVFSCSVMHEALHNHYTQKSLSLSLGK
Description: Inhibition of Fc:Fc interactions: The Fc region of IgG4 interacts in an Fc to Fc fashion with immune complexed IgG. Purified IgG4 is used with polypeptides of the invention to examine inhibition of immune complex formation and Fc:Fc interactions. Chemical modification of His435, a critical IgG Fc amino acid bound by polypeptides of the invention, is known to inhibit Fc:Fc interactions.

[3] = tested on: C1q; test: Inhibition of C1q binding: reverse ELISA, PAP immune complexes on C1q coated plates (Example 3); parameters: species or system human; conditions: for OD 405 nm: peptide or C1q pre-incubated with PAP 30 minutes, (+) control PAP with no peptide 0.467, lower OD = more inhibition
Description: For this reason, a “reverse ELISA” technique is used to assess binding of the Fc region to ligands that bind to immune complexed IgG Fc. In a reverse ELISA, the enzyme (e.g., HRP) is not covalently conjugated to the Fc portion of the secondary antibody. Rather, a preformed immune complex of peroxidase-rabbit (or mouse) anti-peroxidase IgG (“PAP” complex) is used. […] In the absence of competitor, PAP complexes bind to the immobilized ligand and the reaction between HRP and its substrate produces a signal. This signal is reduced by polypeptides and compounds of the invention that inhibit PAP binding to the immobilized ligand.
Inhibition of C1q binding: Twenty μl of peroxidase (P) (Sigma) was diluted in 2 ml of sample diluent (Quidel Corp, San Diego, Calif.). Twenty μl of anti-peroxidase (AP) (Sigma) was diluted in 2 ml of sample diluent, and 20 μl of the diluted AP was added to the diluted P (1:100 antigen:antibody ratio) to form peroxidase-anti-peroxidase (PAP) complexes. The extreme antigen excess guaranteed that any single antibody would be bound to two peroxidase molecules and larger immune complexes would not form, thus preventing the bridging of larger immune complexes to multimeric C1q (heximeric). One hundred μl of peptide or C1q was pre-incubated with freshly prepared PAP for 30 minutes, added to C1q coated plates (Quidel Corp.), and incubated for one hour. After washing, ABTS substrate (Quidel Corp.) was added to the plates and incubated for 30 minutes, and the plates were read at 405 nm. All peptides were cyclized by forming a disulfide bond between the two cysteine residues.

[4] = tested on: FcγIII; test: Inhibition of FcR binding: reverse ELISA, PAP immune complexes on FcγIII coated plates (Example 3); conditions: plates read at 450 nm, (+) control PAP with no peptide 3.600
Experimental: (§1) Inhibition of FcR binding: Once the reverse ELISA protocol was established using the C1q assay, the assay was redesigned using FcγIIa, FcγIIb and FcγIII in place of C1q. Highly purified FcγIIa, FcγIIb and FcγIII were immunoadsorbed onto plastic microwells. After optimizing the FcγR reverse ELISA system, simple competitive inhibition experiments using polypeptides of the invention were conducted to investigate their ability to inhibit binding of immune complexes to purified FcγR.
(§2) Falcon microtiter plates were coated with 1:10 dilutions of highly purified FcγIIa, FcγIIb and FcγIII and incubated for 24 hours. […] Equal amounts (50 μl) of peptide and 1:10 PAP immune complexes were pre-incubated for one hour and then incubated on the FcR coated plates for one hour. […] Stop solution (10 μl) was added and the plates were read at 450 nm.

[5] = tested on: FcγIIa; test: Inhibition of FcR binding: reverse ELISA, PAP immune complexes on FcγIIa coated plates (Example 3); conditions: plates read at 450 nm, (+) control PAP with no peptide 3.600
Experimental: as §1, §2

[6] = tested on: human monomeric IgG; test: Inhibition of rheumatoid factor binding to monomeric IgG (Example 4); conditions: peptides pre-incubated 30 minutes with monomeric IgG, then 200 I.U. RF; (+) control buffer only 1.376
Experimental: The ability of the peptides to inhibit the binding of rheumatoid factor to monomeric IgG was tested. Binding to monomeric IgG may be important, as it may increase the half-life of particular peptides and allow them to be more bioactive.
A standard rheumatoid factor commercial test was used (Research Diagnostics) with the following modifications: 100 μl of test peptides were pre-incubated for 30 minutes with human monomeric IgG (Research Diagnostics). Plates were washed and incubated with 200 I.U. rheumatoid factor positive control supplied with the test kit. The rest of the test was performed according to the manufacturer's instructions.

[7] = tested on: FcγIIb; test: Inhibition of FcR binding: reverse ELISA, PAP immune complexes on FcγIIb coated plates (Example 3); conditions: plates read at 450 nm, (+) control PAP with no peptide 3.600
Experimental: as §1, §2

[8] = tested on: MBP; conditions: rabbit PAP pre-incubated with peptide or MBP 30 minutes; (+) control buffer only 1.033
Experimental: Inhibition of MBP binding: MBP (Sigma) was diluted 1:10 with coating buffer (Alpha Diagnostic International) and incubated for 24 hours on Falcon microtiter plates. Plates were washed and then blocked with 5× BSA blocking buffer (Alpha Diagnostic International) for 24 hours. Rabbit 1:10 PAP immune complexes were pre-incubated with equal amounts of peptide or MBP for 30 minutes. One hundred μl of PAP immune complexes/peptide or PAP/MBP was then added to the MBP-coated plates and incubated for one hour. The plates were washed and incubated with TMB substrate (Alpha Diagnostic International) for 30 minutes. After adding stop solution (Alpha Diagnostic International), the plates were read at 450 nm.
Further experiments were conducted to determine the effect of SEQ ID NO:47 (also referred to as NB-406) on binding of MBP to IgG PAP immune complexes.

[9] = tested on: polyclonal IgM RF; test: Inhibition of RF binding: PAP immune complexes on rheumatoid factor coated plates (Example 3); conditions: for OD 405 nm: PAP pre-incubated 30 minutes with peptides or RF, (+) control PAP with no peptide 0.753; for inhibition of RF binding to immune complexes, in words: Table 3
Experimental: Inhibition of RF binding: The assay to test inhibition of RF binding to the IgG Fc CH2-CH3 clefts was very similar to the C1q-CIC EIA assay described above, with the exception that polyclonal IgM RF was coated onto the microwells instead of C1q. […] High titer, RF positive sera were purchased from Research Diagnostics (Flanders, N.J.).
A 1:10 dilution of 200 μl of 200 I.U. rheumatoid factor (RF) (+) control (positive standard provided by Research Diagnostics was coated onto Falcon microtiter plates and incubated for 24 hours. The plates were blocked with 1:5 BSA blocking buffer (Alpha Diagnostic International) for one hour. Freshly prepared 1:10PAP (antigen:antibody) immune complexes were pre-incubated for 30 minutes with peptides or RF (positive control containing only buffer). After washing, plates were incubated with ABTS substrate (Research Diagnostics) for 30 minutes and then read at 405 nm. Results are shown in Table 3.

[10] = tested on: histone; test: Inhibition of histone binding: PAP immune complexes on histone-coated plates (Example 3); conditions: rabbit PAP pre-incubated with peptides or histone one hour; (+) control buffer only 1.268
Experimental: Inhibition of histone binding: The binding of immune complexes to the kidneys in lupus nephritis appears to involve (a) the binding of histones to the GBM, and then (b) the binding of immune complexes (through the IgG Fc CH2-CH3 cleft) to the bound histones. Experiments similar to those described above were used to inhibit binding of purified histone to IgG Fc binding. Histone (Sigma) was diluted 1:10 in coating buffer (Alpha Diagnostic International) and incubated on Falcon microtiter plates for 24 hours. Plates were blocked with 5× BSA blocking solution (Alpha Diagnostic International) for 24 hours. Freshly prepared 1:10 rabbit PAP (Sigma) was pre-incubated with either peptides or histone for one hour, and 100 μl of the mixture was added to the histone-coated plates for one hour. Plates were incubated with ABTS substrate (Quidel Corp.) for 45 minutes, and OD 405 was read.

[11] = 10 mg/kg, versus diseased control

| Compound | OD 405 nm [2] | OD 405 nm [3] | OD 450 nm (PAP immune complex binding) [4] | PAP immune complex binding (OD at 450 nm) [5] | OD 405 nm [6] | OD at 450 nm (PAP binding to FcγIIb) [7] | OD 405 nm [8] | OD 405 nm [9] | OD 405 nm [10] | also measured |
| --- | --- | --- | --- | --- | --- | --- | --- | --- | --- | --- |
| CC(C)C[C@@H]1NC(=O)[C@H](Cc2c[nH]cn2)NC(=O)[C@H](Cc2c[nH]c3ccccc23)NC(=O)[C@H](C)NC(=O)[C@@H](NC(=O)[C@@H](N)CC(=O)O)CSSC[C@@H](C(=O)N[C@H](C(=O)O)[C@@H](C)O)NC(=O)[C@H](Cc2c[nH]c3ccccc23)NC(=O)[C@H](C(C)C)NC(=O)[C@H](CC(C)C)NC(=O)[C@H](CCC(=O)O)NC(=O)CNC1=O | – | – | – | – | – | – | – | – | – | adverse reactions at injection sites ([1]; daily subcutaneous injections day 32 to day 47, all doses, injection sites examined daily): no adverse reactions were observed; maximum inhibition of arthritic symptoms ([1]; mouse, in vivo): 37% |
| CC(C)C[C@@H]1NC(=O)[C@H](Cc2c[nH]cn2)NC(=O)[C@H](CCCNC(=N)N)NC(=O)[C@H](C)NC(=O)[C@@H](NC(=O)[C@@H]2CCCN2C(=O)[C@@H]2CCCN2C(=O)[C@H](C)N)CSSC[C@@H](C(=O)N[C@H](C(=O)O)[C@@H](C)O)NC(=O)[C@H](Cc2c[nH]c3ccccc23)NC(=O)[C@H](C(C)C)NC(=O)[C@H](CC(C)C)NC(=O)[C@H](CCC(=O)O)NC(=O)CNC1=O (HELM PEPTIDE1{A.P.P.C.A.R.H.L.G.E.L.V.W.C.T}$PEPTIDE1,PEPTIDE1,4:R3-14:R3$$$V2.0) | – | – | – | – | – | – | – | – | – | adverse reactions at injection sites ([1]; mouse, in vivo, sc): no adverse reactions were observed |
| APPDCARHLGELVWCT (Synthetically generated polypeptide) | 0.107 | – | – | – | – | – | – | – | – | – |
| DCAAHLGELAACT (disulfide 2-12 (inferred)) | – | 0.458 | 2.413 | 2.434 | 1.421 | 2.263 | – | – | – | inhibition of immune complex binding to solid phase C1q, in words ([3]; Table 1): not significantly different from the positive control |
| DCARHLGELVWCT (disulfide 2-12 (inferred)) | 0.096 | 0.193 | 2.529 | 2.539 | 1.231 | 1.952 | 0.473 | 0.109 | 0.363 | inhibition of RF binding to immune complexes, in words [9]: very effective inhibition; inhibition of Fc:Fc binding, in words ([2]; text on Table 8): strongest inhibition |
| DCAWHLGELAACT (disulfide 2-12 (inferred)) [peptide substituted with alanine at positions 10 and 11] | 0.557 | – | 1.345 | 1.484 | 1.397 | 1.067 | 0.706 | 0.622 | 0.729 | – |
| PCARHLGELVWCT (disulfide 2-12 (inferred)) | 0.129 | 0.205 | 1.602 | 1.149 | 1.323 | 1.211 | 0.489 | 0.106 | 0.444 | inhibition of RF binding to immune complexes, in words [9]: very effective inhibition |
| RCARHLGELVWCT (disulfide 2-12 (inferred)) | 0.191 | 0.247 | 3.502 | 3.398 | 1.314 | 3.284 | 0.569 | 0.152 | 0.359 | – |
| REMICADE: REMICADE® was obtained from Centocor (Malvern, Pa.) | – | – | – | – | – | – | – | – | – | effect on arthritic symptoms, in words ([1]; 10 mg/kg): no effect; effect on histological symptoms of arthritis, in words ([1]; 10 mg/kg): no effect; Arthritic Index ([1]; 10 mg/kg subcutaneously daily, average over final three days of treatment, diseased control 3.8): 3.8; Histological Evaluation ([1]; 10 mg/kg, hindlimbs, day 48, diseased control 45): 45; Arthritic Index Percent Change [1, 11]: 0%; Histological Evaluation Percent Change [1, 11]: 0%; adverse reactions at injection sites ([1]; mouse, in vivo, sc): no adverse reactions were observed |
